The record followed here is patent publication US9181248B2, “[1,2,4]triazolopyridines and their use as phosphodiesterase inhibitors” (LEO Pharma A/S, priority 2011, dated 2015).

SMILES strings stand for the structures.

A short description of data set [1]: Human whole blood (WB) assay. The format is in vitro ADME. To be noted: pH 7.4, 1 μM compound, 37° C., average of 2 to 4 tests, read-out: WB assay, half-life T½. As to the method:
Incubations of test compounds in DMSO, diluted with phosphate buffer, pH 7.4, at 1 μM were carried out with human whole blood. The percentage of organic solvent in the incubations was 1%. The incubations were performed at 37° C. with aliquots taken at 0, 15, 30, 60 and 120 minutes, and reactions were terminated by addition of methanol containing analytical internal standard (IS). The results were expressed as half-life (T½) in minutes calculated from the rate constant (k) (min^−1) of test compound depletion.

In data set [2] the test system is TNF-α release in human peripheral blood mononuclear cells (PBMC). Nature of the data set: TNF-α release. Conditions: 18 h, read-out: TNF-α release assay, IC50.
Excerpt: Results are expressed as IC50 values (nM) calculated from inhibition curves using as positive controls the secretion in LPS stimulated wells and as negative controls the secretion in unstimulated cells.
Data set [3] is described as follows: Keratinocyte stability (KC) assay. The format is in vitro ADME. Conditions: pH 7.4; plated human keratinocytes, 1 μM compound, 37° C.; average of 2 to 4 tests; read-out: KC assay, half-life T½. As to the method:
Incubations of test compounds in DMSO, diluted with growing medium, pH ˜7.4, at 1 μM were carried out with plated human keratinocytes. The percentage of organic solvent in the incubations was 0.5%. The incubations were performed at 37° C. with aliquots taken at 0, 60, 120, 240 and 1440 minutes, and reactions were terminated by addition of methanol containing analytical internal standard (IS). The results were expressed as half-life (T½) in minutes calculated from the rate constant (k) (min^−1) of test compound depletion.

What is called half-life is how long it takes for the measured level to halve. The IC50 is the concentration that inhibits the measured activity by half. In the case of `COc1ccc(-c2ccc3c(c2)COC3=O)n2nc(C3(C(=O)OC(C)(C)C)CC3)nc12` [Compound 4, Tert-butyl 1-[8-methoxy-5-(1-oxo-3H-isobenzofuran-5-yl)-[1,2,4]triazolo[1,5-a]pyridin-2-yl]cyclopropanecarboxylate], the results for the half-life at 1 μM in data set [1] and in data set [3] were less than 11.2 min and more than 720 min, respectively. Besides, the IC50 in data set [2] was determined as 0.0153 µM.
On to `COc1ccc(-c2ccc3c(c2)COC3=O)n2nc(C3(C(=O)OCC(C)C)CC3)nc12` [Compound 3, [2-Methylpropyl]1-[8-methoxy-5-(1-oxo-3H-isobenzofuran-5-yl)-[1,2,4]triazolo[1,5-a]pyridin-2-yl]cyclopropanecarboxylate], for which the half-life at 1 μM in data set [1] is 16.6 min; in data set [3] it was more than 720 min.
Regarding `CC[C@@H](C)OC(=O)C1(c2nc3c(OC)ccc(-c4ccc5c(c4)COC5=O)n3n2)CC1` [Compound 2, [(1R)-1-Methylpropyl]1-[8-methoxy-5-(1-oxo-3H-isobenzofuran-5-yl)-[1,2,4]triazolo-[1,5-a]pyridin-2-yl]cyclopropanecarboxylate], the half-life at 1 μM in data set [1] is 12.6 min; in data set [3], more than 720 min. In addition, the IC50 in data set [2] stood at 0.0157 µM.
On the same counts, the results for `CC[C@H](C)OC(=O)C1(c2nc3c(OC)ccc(-c4ccc5c(c4)COC5=O)n3n2)CC1` [Compound 1, [(1S)-1-Methylpropyl]1-[8-methoxy-5-(1-oxo-3H-isobenzofuran-5-yl)-[1,2,4]triazolo-[1,5-a]pyridin-2-yl]cyclopropanecarboxylate] are 10.7 min, more than 720 min and 0.0128 µM.
